Where “and” joins values, the source holds several entries; their conditions need not be identical. Equal entries are not always repeated. Where two headings read alike, the source gives them in different places.
Tests used:
human pulmonary arteries [1] = tested on: human pulmonary arteries; set-up: method as in PMID 19541711; details: hPAs, other studies; cited from earlier work
human pulmonary arteries [2] = assay: Contraction of isolated human pulmonary arteries by agonists alone (organ bath, cumulative concentration-response curves); format: cell-based; details: for EC50 / Emax: Homo sapiens
Procedure: (§1) Lung tissue was received from 29 men and 5 women (mean age 65 ± 2 years) with lung carcinoma (without PAH) undergoing lobectomy or pneumonectomy. Before the operation, they received cephalosporins and heparin as anti-infection and antithrombotic prophylaxis, respectively. Isolation of hPAs has been described previously. When necessary, endothelium was disrupted by rubbing of the lumen with horse hair. Arterial rings (3–5 mm in length and 2–4 mm in outer diameter) were mounted in 10 ml organ baths containing Tyrode’s solution [17] gassed with 95% O2 and 5% CO2 (37 °C, pH 7.4). Resting tension ranged from 19.6 to 24.5 mN (equivalent to transmural pressure of ~ 16 mmHg). Muscle tension was recorded by a force displacement transducer (BIO-SYS-TECH). After equilibration, rings were exposed to high KCl (60 mM) Tyrode’s solution (equimolar substitution of NaCl by KCl) to check tissue viability and maximum contraction and to phenylephrine (1 µM) followed by acetylcholine (10 µM) to verify if the endothelium is intact. […]. Concentrations of antagonists and citalopram were taken from previous studies. In each preparation, only one experimental curve was determined.
(§2) Results are given as mean ± SEM from n patients. Contractile responses were shown as percentages of the response to KCl 60 mM. GraphPad Prism 5.0 software was used to plot the mean data as sigmoidal CRCs. CRCs were used to determine potency (pEC50) and maximal effect (Emax) of agonists.

human pulmonary arteries [3] = assay: Influence of antagonists/inhibitors on 5-HT-induced vasoconstriction of isolated human pulmonary arteries; format: cell-based; details: for rightward shift of the CRC for 5-HT (factor): ketanserin 0.1 µM, SB224289 0.2 µM, GR55562 1 µM
Procedure: as §1, §2

5-HT2AR = biological target: T1, 5-HT2AR (Homo sapiens, UniProt P28223); assay: Influence of antagonists on α-methyl-5-HT-induced vasoconstriction of isolated human pulmonary arteries; format: cell-based; details: for Tension (contractile response to α-methyl-5-HT in absolute terms): α-methyl-5-HT in presence of ketanserin 0.01 μM or LY393558 0.1 μM, control α-methyl-5-HT (DMSO)
T1 construct: Arterial rings (3–5 mm in length and 2–4 mm in outer diameter) were mounted in 10 ml organ baths; from tissue; host or cells: human pulmonary artery rings from lung tissue removed at lobectomy or pneumonectomy
T1 sequence (P28223 whole entry): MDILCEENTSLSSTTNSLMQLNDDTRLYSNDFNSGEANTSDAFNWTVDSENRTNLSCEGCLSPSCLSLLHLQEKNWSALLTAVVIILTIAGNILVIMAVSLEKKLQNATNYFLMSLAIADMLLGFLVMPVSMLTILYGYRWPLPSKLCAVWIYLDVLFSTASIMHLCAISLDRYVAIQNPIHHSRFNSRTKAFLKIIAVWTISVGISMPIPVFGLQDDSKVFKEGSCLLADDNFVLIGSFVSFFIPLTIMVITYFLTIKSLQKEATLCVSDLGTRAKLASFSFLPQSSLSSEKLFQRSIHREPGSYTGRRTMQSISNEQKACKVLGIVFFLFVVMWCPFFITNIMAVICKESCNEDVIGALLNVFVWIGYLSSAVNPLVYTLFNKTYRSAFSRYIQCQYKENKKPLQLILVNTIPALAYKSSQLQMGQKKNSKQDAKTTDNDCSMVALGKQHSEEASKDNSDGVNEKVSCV
Procedure: (§3) Lung tissue was received from 29 men and 5 women (mean age 65 ± 2 years) with lung carcinoma (without PAH) undergoing lobectomy or pneumonectomy. Before the operation, they received cephalosporins and heparin as anti-infection and antithrombotic prophylaxis, respectively. Isolation of hPAs has been described previously. When necessary, endothelium was disrupted by rubbing of the lumen with horse hair. […] Muscle tension was recorded by a force displacement transducer (BIO-SYS-TECH). After equilibration, rings were exposed to high KCl (60 mM) Tyrode’s solution (equimolar substitution of NaCl by KCl) to check tissue viability and maximum contraction and to phenylephrine (1 µM) followed by acetylcholine (10 µM) to verify if the endothelium is intact. […] Concentrations of antagonists and citalopram were taken from previous studies. In each preparation, only one experimental curve was determined.
as §2

SERT = details: cited from earlier work
5-HT1B/1DR = biological target: T2, 5-HT1B/1DR (Homo sapiens, UniProt P28222); assay: Influence of antagonists on 5-CT-induced vasoconstriction of isolated human pulmonary arteries; format: cell-based; details: 5-CT in presence of SB224289 0.2 μM, GR55562 1 μM or LY393558 0.1 μM; control 5-CT (DMSO)
T2 construct: Arterial rings (3–5 mm in length and 2–4 mm in outer diameter) were mounted in 10 ml organ baths; from tissue; host or cells: human pulmonary artery rings from lung tissue removed at lobectomy or pneumonectomy
T2 sequence (P28222 whole entry): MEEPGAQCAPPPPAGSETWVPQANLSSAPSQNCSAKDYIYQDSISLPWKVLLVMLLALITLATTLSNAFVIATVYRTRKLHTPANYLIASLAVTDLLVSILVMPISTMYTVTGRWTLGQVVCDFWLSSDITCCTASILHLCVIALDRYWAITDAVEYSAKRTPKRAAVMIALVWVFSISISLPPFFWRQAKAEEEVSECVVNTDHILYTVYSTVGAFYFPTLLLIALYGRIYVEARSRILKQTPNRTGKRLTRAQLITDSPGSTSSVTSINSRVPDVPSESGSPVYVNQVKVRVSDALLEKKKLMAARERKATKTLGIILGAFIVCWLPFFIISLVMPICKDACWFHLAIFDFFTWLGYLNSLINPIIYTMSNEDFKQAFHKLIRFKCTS
Procedure: as §3, with “(BIO-SYS-TECH).” for “(BIO-SYS-TECH). After equilibration, rings were exposed to high KCl (60 mM) Tyrode’s solution (equimolar substitution of NaCl by KCl) to check tissue viability and maximum contraction and to phenylephrine (1 µM) followed by acetylcholine (10 µM) to verify if the endothelium is intact.”
as §2

α1-adrenoceptor = assay: Influence of LY393558 on phenylephrine-induced vasoconstriction of isolated human pulmonary arteries; format: cell-based
Procedure: as §1
(§4) Results are given as mean ± SEM from n patients. Contractile responses were shown as percentages of the response to KCl 60 mM. GraphPad Prism 5.0 software was used to plot the mean data as sigmoidal CRCs. […]

[4] = biological target: T3, thromboxane A2 (TP) receptor (Homo sapiens, UniProt P21731); assay: Influence of LY393558 on U46619-induced vasoconstriction of isolated human pulmonary arteries; format: cell-based
T3 construct: Arterial rings (3–5 mm in length and 2–4 mm in outer diameter) were mounted in 10 ml organ baths; from tissue; host or cells: human pulmonary artery rings from lung tissue removed at lobectomy or pneumonectomy
T3 sequence (P21731 1-343): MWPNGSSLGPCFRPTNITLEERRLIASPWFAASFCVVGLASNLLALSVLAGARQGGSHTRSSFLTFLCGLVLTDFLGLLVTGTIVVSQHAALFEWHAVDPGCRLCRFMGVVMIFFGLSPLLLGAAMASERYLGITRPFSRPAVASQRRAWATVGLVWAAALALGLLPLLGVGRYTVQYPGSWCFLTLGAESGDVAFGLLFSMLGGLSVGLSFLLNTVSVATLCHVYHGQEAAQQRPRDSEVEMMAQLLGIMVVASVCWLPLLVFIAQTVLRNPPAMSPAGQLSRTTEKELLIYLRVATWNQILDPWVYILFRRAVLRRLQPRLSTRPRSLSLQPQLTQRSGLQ
Procedure: as §1, §4

5-HT2ARs = biological target: 5-HT2ARs; set-up: method as in PMID 11734182; details: read-out: pKi at 5-HT2ARs (converted); cited from earlier work
[5] = agonist alone, DMSO vehicle control, endothelium-intact hPAs
[6] = agonist alone, endothelium removed (-ENDO)
[7] = agonist alone, endothelium-intact hPAs
[8] = 5-HT in presence of: citalopram 1 μM, SB224289 0.2 μM, GR55562 1 μM, ketanserin 0.1 μM or combinations, 45 min incubation, endothelium-intact
[9] = SB224289 0.2 μM, GR55562 1 μM, ketanserin 0.1 μM, endothelium-intact
[10] = agonist alone (control of LY393558 experiment, Fig. 3), endothelium-intact hPAs

## NCCc1c[nH]c2ccc(C(N)=O)cc12 [5-CT, 5-carboxamidotryptamine]
Human pulmonary arteries [1]
  efficiency less than that of 5-HT: 50%
Human pulmonary arteries [2]; [5]
  Emax (percentage of the response to 60 mM KCl): 73 ± 6%
  Tension (contractile response in absolute terms): 8.0 ± 1.0 mN
  pEC50: 6.36 ± 0.09
Human pulmonary arteries [2]; hPAs, this study
  efficacy lower than that of 5-HT: 20%

## NCCc1c[nH]c2ccc(O)cc12 [5-HT, serotonin]
Human pulmonary arteries [2]; [5]
  EC50: 457 nM
  Tension (contractile response in absolute terms): 8.5 ± 1.8 mN
Human pulmonary arteries [2]; [6]
  EC50: 1700 nM
  Tension (contractile response in absolute terms): 9.4 ± 1.2 mN
Human pulmonary arteries [2]; [7]
  EC50: 631 nM
  Tension (contractile response in absolute terms): 9.7 ± 1.0 mN
Human pulmonary arteries [2]; read-out: Emax (percentage of the response to 60 mM KCl), agonist alone, DMSO vehicle control, endothelium-intact hPAs
  Emax: 82 ± 4%
Human pulmonary arteries [2]; read-out: Emax (percentage of the response to 60 mM KCl), agonist alone, endothelium removed (-ENDO)
  Emax: 92 ± 4%
Human pulmonary arteries [2]; read-out: Emax (percentage of the response to 60 mM KCl), agonist alone, endothelium-intact hPAs
  Emax: 94 ± 4%

## CN(C)CCCC1(c2ccc(F)cc2)OCc2cc(C#N)ccc21 (stereo not drawn) [Citalopram]
Human pulmonary arteries [3]; 5-HT + citalopram 1 μM, endothelium removed (-ENDO)
  Tension (contractile response to 5-HT in absolute terms): 7.6 ± 1.3 mN
Human pulmonary arteries [3]; [8]
  Tension (contractile response to 5-HT in absolute terms): 8.9 ± 1.3 mN
Human pulmonary arteries [3]; citalopram 1 µM, endothelium-denuded preparations
  influence on the potency of 5-HT: enhanced the potency of 5-HT
Human pulmonary arteries [3]; citalopram 1 µM, endothelium-intact hPAs
  influence on the CRC for 5-HT: did not influence the CRC for 5-HT

## CN(C)CCCc1cc(C(=O)Nc2ccc(-c3ccncc3)cc2)ccc1O [GR55562]
Human pulmonary arteries [3]; [8]
  Tension (contractile response to 5-HT in absolute terms): 7.2 ± 2.0 mN
Human pulmonary arteries [3]; [9]
  pA2 against 5-HT: 6.6 and 6.63
Human pulmonary arteries [3]
  rightward shift of the CRC for 5-HT (factor): 5

## O=C(c1ccc(F)cc1)C1CCN(CCn2c(=O)[nH]c3ccccc3c2=O)CC1 [Ketanserin, ketanserin]
Human pulmonary arteries [3]; [8]
  Tension (contractile response to 5-HT in absolute terms): 7.7 ± 1.2 mN
Human pulmonary arteries [3]; [9]
  pA2 against 5-HT: 7.40
Human pulmonary arteries [3]; SB224289 0.2 μM, GR55562 1 μM, ketanserin 0.1 μM, endothelium-intact, listed as ketanserin
  pA2 against 5-HT: 7.4
Human pulmonary arteries [3]
  rightward shift of the CRC for 5-HT (factor): 3
5-HT2AR; LY393558, ketanserin 0.01 µM (Discussion)
  vasoconstriction induced by α-methyl-5-HT diminished by: 30%
5-HT2AR
  Tension (contractile response to α-methyl-5-HT in absolute terms): 9.7 ± 2.3 mN

## CC(C)N1Cc2cc(S(C)(=O)=O)ccc2N(CCN2CC=C(c3c[nH]c4cc(F)ccc34)CC2)S1(=O)=O [LY393558]
SERT; read-out: Ki (SERT inhibition)
  Ki: ~1 nM
5-HT1B/1DR
  Tension (contractile response to 5-CT in absolute terms): 7.3 ± 2.0 mN
Human pulmonary arteries [3]; 5-HT + LY393558 0.1 μM, control 5-HT (DMSO), endothelium-intact
  Tension (contractile response to 5-HT in absolute terms): 9.1 ± 1.7 mN
Human pulmonary arteries [3]; LY393558 0.1 μM, control 5-HT (DMSO), endothelium-intact
  pA2 against 5-HT: 8.3 and 8.25
α1-adrenoceptor; LY393558 0.1 µM
  effect on the vasoconstrictory effects of phenylephrine: did not modify
α1-adrenoceptor; from lack of effect of 0.1 µM on phenylephrine response
  pA2 at human α1 receptors: < 7.0
[4]; LY393558 0.1 µM
  effect on the vasoconstrictory effects of U46619: did not modify
[4]; from lack of effect of 0.1 µM on U46619 response
  pA2 at human TP receptors: < 7.0
5-HT2ARs
  Ki: ~100 nM
5-HT2AR
  Tension (contractile response to α-methyl-5-HT in absolute terms): 10.5 ± 2.4 mN

## Cc1nc(-c2ccc(-c3ccc(C(=O)N4CCc5cc6c(cc54)C4(CCN(C)CC4)CO6)cc3)c(C)c2)no1 [SB224289]
SERT
  affinity for the SERT: has no affinity for the SERT
5-HT1B/1DR
  Tension (contractile response to 5-CT in absolute terms): 10.0 ± 3.3 mN
Human pulmonary arteries [3]; [8]
  Tension (contractile response to 5-HT in absolute terms): 7.0 ± 1.9 mN
Human pulmonary arteries [3]; [9]
  pA2 against 5-HT: 7.0 and 7.02

## CCCCC[C@H](O)/C=C/[C@@H]1[C@@H](C/C=C\CCCC(=O)O)[C@H]2CO[C@@H]1C2 [U46619]
Human pulmonary arteries [2]; [10]
  Emax (relative to the KCl-induced response): 109 ± 6%
  pEC50: 8.60 ± 0.10

## CNC[C@H](O)c1cccc(O)c1 [phenylephrine, (–)-phenylephrine]
Human pulmonary arteries [2]; [10]
  EC50: 3160 nM
Human pulmonary arteries [2]; agonist alone (control of LY393558 experiment, Fig. 3), endothelium-intact hPAs, read-out: Emax (relative to the KCl-induced response)
  Emax: 68 ± 5%

## CC(N)Cc1c[nH]c2ccc(O)cc12 (stereo not drawn) [α-Methyl-5-HT, α-methyl-5-HT]
Human pulmonary arteries [2]; [5]
  Emax (percentage of the response to 60 mM KCl): 79 ± 5%
  Tension (contractile response in absolute terms): 10.5 ± 1.0 mN
  pEC50: 5.89 ± 0.08

Source: article PMC7329800, “Reduction of the serotonin 5-HT1B and 5-HT2A receptor-mediated contraction of human pulmonary artery by the combined 5-HT1B receptor antagonist and serotonin transporter inhibitor LY393558” (Pharmacological Reports, 2020)
